Tests used:
[1] = test system: murine collagen-induced arthritis (CIA); experiment: Clinical evaluation of arthritis activity (clinical arthritis index, incidence) in collagen-induced arthritis mice; assay type: in vivo, mouse; parameters: CAI-AUC Mean / Incidence-AUC Mean: unit not given here; settings: for CAI Mean: naltrexone (Revia Tablet) 10 mg/kg oral once/day
Procedure: As a model of murine collagen-induced arthritis (CIA), 6 to 10 week-old male mice of DBA/1 J strain was prepared. […] The number of experimental animals per cage was kept under 6, and a cage was exchanged twice a week and feed was supplied.
A 2 mg/mL collagen solution was prepared by dissolving bovine type 2 collagen in 10 mM acetic acid. After emulsifying by mixing 2 mg/mL of Complete Freund's adjuvant and collagen solution in a 1:1 (v/v) ratio, it was intradermally injected into the tail of mouse at a dose of 100 μl/animal (first immunization, day 0). After emulsifying by mixing incomplete Freund's adjuvant […] and collagen solution in a 1:1 (v/v) ratio on the 21th day, it was intradermally injected into the tail of mouse at a dose of 100 μl/animal (the secondary immunization, on the 21th day). After that, mice were randomly divided into groups and assigned to experimental groups.
The refrigerated test substance was standed at room temperature 1 hour before administration and dissolved in 0.15 mL of water for injection. 0.15 mL of the test substance was filled using a syringe with a 21 G needle. The needle was changed to 23 G within 2 minutes after filling and the mice were injected.
(§1) After administration of the test substance to the collagen-induced arthritis mouse model, the occurrence and level of inflammation were regularly observed from the date of group separation to the end of the experiment (the 41th day). Inflammation level was given a score of 0 to 4 for each paw according to the criteria in Table 4 below, and the sum was used as a clinical arthritis index (CAI).
When the clinical index of each paw was 2 score or higher, it was determined that arthritis occurred, and the incidence was defined as 100% when arthritis occurred in […].
as §1, with “end date” for “end”, “above,” for “below,”
as §1, with “above,” for “below,”

[2] = test system: murine collagen-induced arthritis (CIA); experiment: Histological estimation of hind paw tissue, hematoxylin/eosin staining, CIA mice; assay type: in vivo, mouse; parameters: scale not given here; settings: day 41
Procedure: (§2) Mice were sacrificed on the 41th day, which is the end of the experiment, and the tissues of the hind paws were stained with hematoxylin/eosin. Hematoxylin/eosin staining was used to evaluate the activity of inflammation in the arthritic tissue, and toluidine blue staining was performed to confirm the histological therapeutic effect on cartilage destruction.
The hind paw tissue of the mouse was stained with hematoxylin/eosin, and 4 sites (100 magnification) for each tissue were photographed. Two or more investigators evaluated the items of synovial hyperplasia, pannus formation, cartilage destruction, and bone erosion for hematoxylin/eosin staining. The scoring criteria for each item were described in Table 7, and the average score of 4 sites was calculated as the score of each tissue.
Hematoxylin/eosin staining was performed and evaluated in the same manner as in Example 2.3. (1) above, and the score for items of synovial hyperplasia, pannus formation, cartilage destruction, and bone erosion was calculated by scoring each tissue as the average of the score of 4 sites based on Table 7 above.

[3] = test system: murine collagen-induced arthritis (CIA); experiment: Histological estimation of hind paw tissue, toluidine blue staining, CIA mice; assay type: in vivo, mouse; parameters: scale not given here; settings: day 41
Procedure: as §2
The hind paw tissue of the mouse was stained with toluidine blue, and 4 sites (100 magnification) for each tissue were photographed. Two or more investigators evaluated the items of matrix staining, surface regularity, and cartilage thickness. The scoring criteria for each item was described in Table 9, and the average score of 4 sites was calculated as the score of each
(§3) In the same manner as in Example 2.3. (2), the hind paw tissue of the mouse was stained with toluidine blue, and items such as photographing and matrix staining, surface regularity, and cartilage thickness were evaluated. The scoring criteria for each item were described in Table 9, and the average score of 4 sites was calculated as the score of each tissue.
as §3, with “2.3. (2) above,” for “2.3. (2),”, “item is” for “item were”

[4] = Safety assessment in vivo by body weight, CIA mice; settings: Example 3, CIA mouse, MTX 1 mg/kg ip twice/week, Xeljanz 10 mg/kg oral once/day, MTX 1 mg/kg + Q-DDS 3 mg/mouse; for D23 body weight Mean: day 23 (baseline); for D41 body weight Mean: day 41; for Change of body weight (%, D23 body weight 100%) Mean: day 41 vs day 23
Procedure: The safety in vivo of the test substance was evaluated by measuring the body weight of mouse in each administration group of Example 4.1.
For the safety evaluation of the test substance, the body weight of mouse was measured daily from before the start of administration (The 23th day) to just before the end of administration (The 41th day), and the body weight (%) of the mouse for each administration group over the time (day) and the body weight on the 41th day were shown in FIG. 16A, FIG. 16B and Table 27.

[5] = Example 2, CIA mouse, methotrexate 1 mg/kg ip twice/week, naltrexone 10 mg/kg oral once/day, naltrexone DDS 3 mg/mouse sc once on day 23
[6] = Example 2, CIA mouse, methotrexate 1 mg/kg ip twice/week, naltrexone DDS 3 mg/mouse sc once on day 23
[7] = Example 3, CIA mouse, MTX 1 mg/kg ip twice/week, Xeljanz 10 mg/kg oral once/day, MTX 1 mg/kg + Q-DDS 3 mg/mouse
[8] = Example 2, CIA mouse, MTX 1 mg/kg, naltrexone 10 mg/kg oral, naltrexone DDS 3 mg/mouse

In the case of CN(Cc1cnc2nc(N)nc(N)c2n1)c1ccc(C(=O)N[C@@H](CCC(=O)O)C(=O)O)cc1 [Methotrexate, methotrexate], the “CAI-AUC Mean” value [1, 5] is reported as 46.6, the “Incidence (%) Mean” value [1, 5] is reported as 20.83% and the “Incidence-AUC Mean” value [1, 5] is reported as 185.4. For the same compound, the “CAI Mean” value [1, 6] was 5.92, the “CAI (D41) Mean” value [1, 7] was 6.35 and the “CAI-AUC Mean” value [1, 7] was 71.20. For the same compound, the “Incidence (%) Mean” value [1, 7] was 30.0%, the “Incidence-AUC Mean” value [1, 7] was 170.0 and the “Bone erosion score Mean (hematoxylin/eosin)” value [2, 8] was 0.08. The “Cartilage destruction score Mean (hematoxylin/eosin)” value [2, 8] was 0.50, the “Pannus formation score Mean (hematoxylin/eosin)” value [2, 8] was 0.14 and the “Synovial hyperplasia score Mean (hematoxylin/eosin)” value [2, 8] was 0.91. The “Bone erosion score Mean (hematoxylin/eosin)” value [2, 7] was 0.92, the “Cartilage destruction score Mean (hematoxylin/eosin)” value [2, 7] was 1.02 and the “Pannus formation score Mean (hematoxylin/eosin)” value [2, 7] was 0.92. The “Synovial hyperplasia score Mean (hematoxylin/eosin)” value [2, 7] was 1.38, the “Cartilage thickness score Mean (toluidine blue)” value (shortened to “Cartilage thickness score Mean”) [3, 8] was 0.11 and the “Matrix staining score Mean (toluidine blue)” value (“Matrix staining score Mean” below) [3, 8] was 0.61. For the same compound, the “Surface regularity score Mean (toluidine blue)” value (from here on “Surface regularity score Mean”) [3, 8] was 0.34, the “Cartilage thickness score Mean” value [3, 7] was 0.38 and the “Matrix staining score Mean” value [3, 7] was 1.15. The “Surface regularity score Mean” value [3, 7] was 1.02, the D23 body weight Mean [4] was 22.7 g and the D41 body weight Mean [4] was 23.8 g. For the same compound, the “Change of body weight (%, D23 body weight 100%) Mean” value [4] was 104.7%.

With O=C1CC[C@@]2(O)[C@H]3Cc4ccc(O)c5c4[C@@]2(CCN3CC2CC2)[C@H]1O5 [Naltrexone, 17-(cyclopropylmethyl)-4,5α-epoxy-3,14-dihydroxymorphinan-6-one] the “Incidence (%) Mean” value [1, 5] was 41.67%, the “CAI Mean” value [1, 6] was 8.25 and the “Bone erosion score Mean (hematoxylin/eosin)” value [2, 8] was 0.58. For the same compound, the “Cartilage destruction score Mean (hematoxylin/eosin)” value [2, 8] was 0.98, the “Pannus formation score Mean (hematoxylin/eosin)” value [2, 8] was 0.58 and the “Synovial hyperplasia score Mean (hematoxylin/eosin)” value [2, 8] was 1.27. For the same compound, the “Cartilage thickness score Mean” value [3, 8] was 0.39, the “Matrix staining score Mean” value [3, 8] was 0.92 and the “Surface regularity score Mean” value [3, 8] was 0.80.

With C[C@@H]1CCN(C(=O)CC#N)C[C@@H]1N(C)c1ncnc2[nH]ccc12 [Xeljanz ®, Tofacitinib] the “CAI (D41) Mean” value [1, 7] was 6.25, the “CAI-AUC Mean” value [1, 7] was 74.50 and the “Incidence (%) Mean” value [1, 7] was 27.5%. The “Incidence-AUC Mean” value [1, 7] was 263.8, the “Bone erosion score Mean (hematoxylin/eosin)” value [2, 7] was 1.13 and the “Cartilage destruction score Mean (hematoxylin/eosin)” value [2, 7] was 1.38. For the same compound, the “Pannus formation score Mean (hematoxylin/eosin)” value [2, 7] was 1.13, the “Synovial hyperplasia score Mean (hematoxylin/eosin)” value [2, 7] was 1.56 and the “Cartilage thickness score Mean” value [3, 7] was 0.56. The “Matrix staining score Mean” value [3, 7] was 1.42, the “Surface regularity score Mean” value [3, 7] was 1.13 and the D23 body weight Mean [4] was 21.7 g. For the same compound, the D41 body weight Mean [4] was 21.6 g and the “Change of body weight (%, D23 body weight 100%) Mean” value [4] was 99.6%.
